The text below walks through data of US20260098027A1, “PHARMACEUTICALLY ACCEPTABLE SALT AND CRYSTAL FORM OF TETRAHYDRONAPHTHALENE DERIVATIVE, AND PREPARATION METHOD” (JIANGSU HENGRUI PHARMACEUTICALS CO., LTD., priority 2022, published 2026).

Series [1] can be described thus: Influencing factor stability (light, high temperature, high humidity). The format is physicochemical. The method, then: Samples of hydrochloride crystal form I were spread out in open vessels and subjected to 1-month stability tests under light exposure (4500 Lux), high temperature (40° C. and 60° C.), and high humidity (RH 75% and RH 92.5%) conditions.
Series [2] is described as follows: DVS (dynamic vapor sorption) hygroscopicity test. The format is physicochemical. The method, then: DVS refers to dynamic vapor sorption: Surface Measurement Systems instrinsic was adopted; the humidity started at 50%, the humidity range of the investigation was 0%-95%, and the humidity was increased in increments of 10%; the criterion was that each gradient mass change dM/dT is ≤0.002%, TMAX 360 min, two cycles.

A short description of series [3]: Long-term/accelerated stability. It is filed as physicochemical. The method, then: Hydrochloride crystal form I was left to stand under 25° C./60% RH and 40° C./75% RH conditions to test its stability.
For series [4], the system named is MCF-7 (Y537S) human breast cancer cells xenograft tumors. The series can be described thus: Efficacy against MCF-7 (Y537S) xenograft tumors in BEIGE SCID mice. The format is in vivo. Conditions: for Mean tumor volume D0: D0 (day of grouping, before dosing). The method, then: To evaluate the inhibitory effect of compound I on the growth of xenograft tumors of MCF-7 (Y537S) human breast cancer cells in BEIGE SCID mice.
Compound I. A 2% Tween 80+98% PEG-400 solution was used.
Test animals: female BEIGE SCID mice, purchased from Beijing Vital River Laboratory Animal Technology Co., Ltd. (certificate No. SCXK (Beijing) 2016-0006), weighing about 19 g on purchase.
Housing conditions: 5 animals/cage, a 12/12-hour light/dark cycle, a constant temperature of 23±1° C. with humidity at 50 to 60%, ad libitum access to food and water.
After acclimatization, BEIGE SCID mice were grouped as follows:
MCF-7 (Y537S) cells in the logarithmic growth phase were subcutaneously inoculated into the right flank of female BEIGE SCID mice at 1.0×10^7/mouse/200 μL (containing 100 μL of matrigel). After 18 days, when the tumor volume of tumor-bearing mice reached about 170 mm^3, the mice were randomly divided into 4 groups of 8 according to tumor volume and body weight: a vehicle control group, a compound I 5 mpk group, a compound I 15 mpk group, and a compound I 45 mpk group. The day of grouping was set as Do, and intragastric administration was started and performed once a day for 28 days. The 28th day post-dose was set as D28 (Table 1). The tumor volume of tumor-bearing mice was measured with a vernier caliper twice a week.
All data were plotted and statistically analyzed using Excel and GraphPad Prism 8 software.
The calculation formula for tumor volume (V) was: V=½×a×b2, where a and b represent length and width, respectively.
Relative tumor proliferation rate T/C (%)=(T−T0)/(C−C0)×100(%), where T and C represent the tumor volumes of the treatment groups and the control group at the end of the experiment; T0 and C0 represent the tumor volumes at the beginning of the experiment.
Tumor growth inhibition rate TGI (%)=1−T/C (%). If TGI (%) exceeds 100%, its specific value will not be shown; instead, it will be represented as >100%. Tumor regression (%)=[(T0−T)/T0]×100(%).

The test system of series [5] is MCF7 cells. The series can be described thus: Inhibitory effect on MCF7 cell proliferation (CellTiter-Glo). Conditions: Homo sapiens, 144 h, 6 days incubation, luminescence cell viability readout. It is filed as cell-based. The method, then:
MCF7 cells (TCHu74, National Collection of Authenticated Cell Cultures) were cultured in an MEM (GE Healthcare, SH30024.01) complete culture medium containing 10% fetal bovine serum. On day 1 of the experiment, MCF7 cells were seeded into a 96-well plate at a density of 3,000 cells/well using an MEM culture medium containing 2% fetal bovine serum, with each well containing 135 μL of cell suspension. The plate was incubated overnight in a 37° C., 5% CO2 cell incubator. The next day, the test compound, at different concentrations in the culture medium, was added at 15 μL/well. The final concentrations of the compound were 9 concentration points obtained by 4-fold serial dilution from 1000 nM. A blank control containing 0.5% DMSO was set up. The plate was incubated in a 37° C., 5% CO2 cell incubator for 6 days. On day 8, the 96-well cell culture plate was taken out, and CellTiter-Glo® Luminescent Cell Viability Assay (Promega, G7573) was added at 75 µL/well. After the plate was left at room temperature for 10 min, luminescence signal values were measured using a multilabel microplate reader (PerkinElmer, VICTOR 3).

Counter-ions that a name gives are not always drawn.

Consider `CC(C)C[C@H]1CCc2cc(O)ccc2[C@H]1c1ccc(N2CCC(CN3CCN(c4ccc5c(c4)CN([C@H]4CCC(=O)NC4=O)C5=O)CC3)CC2)cc1` [hydrochloride crystal form I, (S)-3-(5-(4-((1-(4-((1R,2R)-6-hydroxy-2-isobutyl-1,2,3,4-tetrahydronaphthalen-1-yl)phenyl)piperidin-4-yl)methyl)piperazin-1-yl)-1-oxoisoindolin-2-yl)piperidine-2,6-dione], for which the Purity % is listed as 98.6% in series [1] (40° C., 7 days, open vessel); 98.4% in series [1] (40° C., 14 days, open vessel); 97.9% in series [1] (40° C., 30 days, open vessel); 98.2% in series [1] (60° C., 7 days, open vessel); 97.6% in series [1] (60° C., 14 days, open vessel); 96.8% in series [1] (60° C., 30 days, open vessel). The Purity % in series [1] (75% RH, 7 days, open vessel) is on record as 99.0%; in series [1] (75% RH, 14 days, open vessel) it was 98.9%; in series [1] (75% RH, 30 days, open vessel) it was 99.0%; in series [1] (93% RH, 7 days, open vessel), 99.0%; in series [1] (93% RH, 14 days, open vessel), 98.9%; in series [1] (93% RH, 30 days, open vessel), 98.7%. The Purity % is on record as 98.6% in series [1] (4500 Lux, 7 days, open vessel); 98.1% in series [1] (4500 Lux, 14 days, open vessel); 97.8% in series [1] (4500 Lux, 30 days, open vessel); 99.0% in series [1] (Initial, 0 days); 99.0% in series [3] (25° C./60% RH, 7 days); 99.0% in series [3] (25° C./60% RH, 14 days). Further, the Purity % in series [3] (25° C./60% RH, 30 days) is 99.0%; in series [3] (25° C./60% RH, 60 days) it was 99.0%; in series [3] (40° C./75% RH, 7 days), 99.0%; in series [3] (40° C./75% RH, 14 days), 99.0%; in series [3] (40° C./75% RH, 30 days), 99.0%; in series [3] (40° C./75% RH, 60 days), 98.9%. Besides, the Purity % in series [3] (Initial, 0 days) amounted to 99.0%. In addition, the “physical and chemical stabilities (conclusion)” value in series [1] (standing 1 month under conditions other than the high temperature and light exposure conditions) is “good physical and chemical stabilities”; in series [3] (standing under long-term accelerated conditions for 2 months) it was “good physical and chemical stabilities”. For the same molecule, the hygroscopic weight gain entry is “about 7.3%” in series [2] (accelerated experimental conditions, 70% RH); “about 8.9%” in series [2] (extreme conditions, 90% RH); “about 6.3%” in series [2] (normal storage conditions, 25° C. and 60% RH). In addition, the “crystal form after the DVS tests” value in series [2] (sample re-identified after DVS) was “its crystal form did not change”.
With `CC(C)C[C@H]1CCc2cc(O)ccc2[C@H]1c1ccc(N2CCC(CN3CCN(c4ccc5c(c4)CN([C@H]4CCC(=O)NC4=O)C5=O)CC3)CC2)cc1` [Compound I, (S)-3-(5-(4-((1-(4-((1R,2R)-6-hydroxy-2-isobutyl-1,2,3,4-tetrahydronaphthalen-1-yl)phenyl)piperidin-4-yl)methyl)piperazin-1-yl)-1-oxoisoindolin-2-yl)piperidine-2,6-dione], in series [4] (5 mpk i.g. qd/28 d), the “Number of remaining animals/group” value is 8/8, the “Mean tumor volume D0” value was 170.2 mm^3, the “Mean tumor volume D28” value came out at 305.0 mm^3 and the “TGI (%) D28” value is recorded as 72%. In series [4] (15 mpk i.g. qd/28 d), the “Number of remaining animals/group” value is reported as 8/8, the “Mean tumor volume D0” value was 168.2 mm^3, the “Mean tumor volume D28” value turned out to be 219.7 mm^3 and the “TGI (%) D28” value came out at 89%. Also, in series [4] (45 mpk i.g. qd/28 d), the “Number of remaining animals/group” value is on record as 8/8, the “Mean tumor volume D0” value is reported as 168.6 mm^3, the “Mean tumor volume D28” value is recorded as 192.0 mm^3 and the “TGI (%) D28” value is recorded as 95%. It took 0.59 nM to reach half-maximal inhibition in series [5] (IC50).
